Experiment [1] concerns NRG1. The experiment can be described thus: Western blot of NRG1 level in treated A172 cells. Format: cell-based, human. How it is done: (§1) A172 cells were cultured in DMEM supplemented with 10% heat-inactivated fetal bovine serum (FBS; Hyclone, Logan, Utah), 100 U/mL penicillin and 0.1 mg/mL streptomycin (Invitrogen, Carlsbad, Calif.) at 37° C. in a humidified incubator with 5% CO2 and 95% air.
(§2) The cells were lysed and the lysates were suspended in a RIPA buffer (50 mM HEPES (pH 7.4), 4 mM EDTA, 150 mM NaCl, 10 mM Na4P2O7, 100 mM NaF, 2 mM Na3VO4, 1% Triton X-100, 0.25% sodium deoxycholate, 50 mM 4-(2-aminoethyl) benzene sulfonylfluoride, 50 μg/mL leupeptin, and 20 μg/mL aprotinin). For each cell sample, 30˜50 μg of total protein, along with a molecular weight ladder were resolved on 8% a bis-tris polyacrylamide NuPAGE gels (90˜130 V, 2 hrs) via electrophoresis and then transferred onto a nitrocellulose membrane (Invitrogen) (550 mA, 90 min) The membrane was first blocked using phosphate buffered saline (PBS) with 5% dry skimmed milk powder for 1 hr at room temperature and then incubated at 4° C. in the presence of mouse anti-serotonin transporter antibody (MAB1564; Chemicon), rabbit anti-norepinephrine transporter antibody (AB2234; Millipore, Bedford, Mass.), or anti-β-actin antibody (MAB1501, Chemicon) overnight. The antibody was diluted in phosphate buffered saline containing 0.1% Tween-20 (PBST). Afterwards, the membrane was washed with PBST and then incubated with a peroxidase-conjugated secondary antibody in PBST. After being washed for several times, the membrane was subjected to the enhanced chemiluminescence (ECL) analysis, following the method described in Yeh et al., 2009, Glia, 57:454-464, using an ECL kit purchased from Santa Cruz Biotechnology and Kodak X-OMAT LS film (Eastman Kodak, Rochester, N.Y.).
(§3) A172 cells were cultured in the presence of serotonin at a concentration of 1, 3, 10, 30, or 100 μM. The levels of both NGR1 and ErbB4, the major receptor of NRG1 in the brain, in the treated A172 cells were examined by Western blot as described above at various time points (e.g., 2 hr, 4 hr, 8 hr, 12 hr, and 24 hr post treatment), using rabbit anti-NRG1 precursor antibody no. […]

The test system of experiment [2] is ErbB4. The experiment can be described thus: Western blot of ErbB4 level in treated A172 cells. The experiment is classed as cell-based, human. How it is done: as §1, §2, §3
For experiment [3], the system named is wild-type and NRG1+/- mice. The experiment can be described thus: Forced swimming test. The experiment is classed as in vivo, mouse. The following applies: for immobility period: desipramine 20 mg/kg i.p.; for effect on immobility time: i.p., desipramine 20, imipramine 15, venlafaxine 15 mg/kg. From the text:
(§4) Transmembrane (TM)-domain NRG1 heterozygous mutant mice (129S5-Nrg1tm1Lex, ID#011745-UCD) were obtained from Mutant Mouse Regional Resource Centers (MMRRC) and backcrossed with B6 mice. NRG1^+/− mice and their wild-type littermates were generated by in-house mating of male NRG1^+/− mice and female C57BL/6 mice. Heterozygous crossing has been practiced for at least 7 generations to obtain animals with a homogeneous C57BL/6 genetic background except for the TM-mutated nrg1 gene locus. Mouse genotypes were determined by PCR analysis. Animals were housed (five per cage) under a 12-hr light/dark cycle (lights on from 8:00 a.m. to 8:00 p.m.) at constant room temperature and relative humidity with food and water available ad libitum. All experiments were started at 10-week-old period at weight of 25-30 g.
(§5) Before undergoing any behavioral test, animals were handled by an investigator for at least 3 days so that they became familiar with the investigator. The animals had been placed under laboratory conditions for at least 1 hr before each behavioral test.
To perform the forced swimming test, each mouse, administered via intraperitoneal injection with either one of the above-listed serotonin transporter inhibitors or saline 30-60 minutes ago, was placed individually in a clear glass cylinder (height, 25 cm; diameter, 15 cm) containing water (depth: 15 cm; temperature: 26±1° C.). Its behavior was recorded by a video camera during a 6-min testing period. The duration of immobility was measured during the last 4 min after a 2-min habituation period.

The subject of experiment [4] is wild-type and NRG1+/- mice. The experiment can be described thus: Social withdrawal behavior evaluation. The following applies: i.p. 30 min before testing; for social approach change score: NRG1+/- mice; for social approach change score, effect: wild-type mice, same doses. More on the design: key to social approach change score: score: +1/s social side, 0 center, -1 nonsocial; presence minus absence. The experiment is classed as in vivo, mouse.
Text: as §4, §5
The social withdrawal behavior evaluation study was performed following the method described in Sankoorikal et al., Biol. Psychiatry 59:415-423, 2006 with modifications. Briefly, this study was carried out in a behavioral testing apparatus containing two end chambers and one middle chamber. A clear Plexiglas cylinder was placed in each of the two end chambers, one being designated as “social side” (where stimulus to mice was introduced through the cylinder) and the other being designated as the “nonsocial side.” (where the cylinder is empty). Multiple holes (0.5 in diameter each) are evenly spaced over the surface of the two cylinders.
Each of the mice to be tested was housed individually for 3 days before the social withdrawal behavior evaluation study was performed. During the study, the response (i.e., social approach) of a test mouse to a novel (unfamiliar) “stimulus” was observed within 5 minutes after the mouse was exposed to the stimulus. A “social approach score” was calculated for each mouse according to the time it spent in each of the three chambers as follows: +1 for each second spent in the social side chamber, 0 for each second spent in the center chamber, and −1 for each second spent in the nonsocial side chamber. The “social approach change score” was calculated by subtracting the value of “social approach score in the absence of stimulus mouse” condition from the value for “presence of stimulus mouse” condition.

[5] abbreviates: NRG1+/- mice, much greater than in wild-type.
Setting [6] is: male (FIG. 2 panel A), desipramine 20, imipramine 15, fluvoxamine 15, venlafaxine 15, duloxetine 20, escitalopram 30 mg/kg, saline −37.7±28.8.
The mark [7] stands for this setting: female, duloxetine 20, escitalopram 30 mg/kg, saline −60.4±40.2.

SMILES strings stand for the structures.

The results in this text go back to patent US20110028453A1, “Treating Negative Symptoms of Schizophrenia Associated with Defective Neuregulin 1” (priority 2009, published 2011).

Regarding `CCCN(CCC)C1CCc2cccc(O)c2C1` (centres unmarked) [8-OH DPAT, 8-hydroxy-N,N-dipropyl-2-aminotetralin], the “level of NRG1 compared with untreated A172 cells (maximal effect)” value in experiment [1] (0.3 μM, 4 hours) stood at 1.44±0.12 fold. In addition, the “level of ErbB4 compared with untreated A172 cells (maximal effect)” value in experiment [2] (0.3 μM, 4 hours) was determined as 1.44±0.10 fold.

For the compound `NCCc1c[nH]c2ccc(O)cc12` [serotonin], the “level of NRG1 compared to saline control” value in experiment [1] (serotonin 10 μM, p<0.05) worked out at 1.4±0.06 fold. The “level of ErbB4 compared to saline control” value in experiment [2] (serotonin 10 μM, p<0.05) came to 1.7±0.1 fold.

With `CNCCCN1c2ccccc2CCc2ccccc21` [desipramine], the immobility in experiment [3] (C57BL/6 wild-type mice, desipramine 50 mg/kg, saline 101.4±16.4 sec) was 58.6 ± 11.0 s. Moreover, the immobility period in experiment [3] (NRG1+/- mice, control NRG1+/- = 122.8%, p<0.01) is 36.5±18.0%; in experiment [3] (wild-type mice, control wild-type = 100.0%, p=0.24), 65.7±24.5%. In addition, the “effect on immobility time” value is “decreased” in experiment [3] (setting [5]) and “only slightly affected” in experiment [3] (wild-type mice). In experiment [4] (setting [6]), the “social approach change score” value came out at 122.7±31.0. Further, the “social approach change score, effect” value in experiment [4] is recorded as “not significantly different”.

With `COc1ccc(C(CN(C)C)C2(O)CCCCC2)cc1` (centres unmarked) [venlafaxine], the results for the “effect on immobility time” value in experiment [3] (setting [5]) and in experiment [3] (wild-type mice) were “decreased” and “only slightly affected”, respectively. Besides, in experiment [4] (setting [6]), the “social approach change score” value amounted to 61.9±24.7. Also, in experiment [4], the “social approach change score, effect” value is on record as “not significantly different”.

Consider `CN(C)CCCN1c2ccccc2CCc2ccccc21` [imipramine], for which the “effect on immobility time” value in experiment [3] (setting [5]) is given as “decreased”; in experiment [3] (wild-type mice), “only slightly affected”. Also, the “social approach change score” value in experiment [4] (setting [6]) is 138.7±18.8. For the same compound, the “social approach change score, effect” value in experiment [4] is listed as “not significantly different”.

With `CNCC[C@H](Oc1cccc2ccccc12)c1cccs1` [duloxetine], the “social approach change score” value is listed as 103.7±30.8 in experiment [4] (setting [7]) and 78.7±28.5 in experiment [4] (setting [6]). In addition, in experiment [4], the “social approach change score, effect” value is “not significantly different”.

As for `COc1cc(CC(C)N)c(OC)cc1I` (centres unmarked) [DOI], in experiment [1] (0.1-3 μM, 4 hours), the “effect on level of NRG1” value is listed as “did not show increased levels”. The “effect on level of ErbB4” value in experiment [2] (0.1-3 μM, 4 hours) is reported as “did not show increased levels”.

Turning to `CN(C)CCC[C@@]1(c2ccc(F)cc2)OCc2cc(C#N)ccc21` [escitalopram], the figures for the “social approach change score” value in experiment [4] (setting [7]) and in experiment [4] (setting [6]) were 110.1±41.9 and 175.3±60.4, respectively. Further, the “social approach change score, effect” value in experiment [4] is given as “not significantly different”.

For `COCCCC/C(=N\OCCN)c1ccc(C(F)(F)F)cc1` [fluvoxamine], in experiment [4] (setting [6]), the “social approach change score” value is on record as 98.6±15.9. In addition, the “social approach change score, effect” value in experiment [4] was “not significantly different”.
